System: MDA-MB-231
Assay: Cytotoxicity against human MDA-MB-231 cells at 10^-7 M after 48 hrs by SRB assay
Format: functional
Conditions: MDA-MB-231, 48 h, read-out: GI

## CCN(Cc1nc2cc(C(F)(F)F)ccc2nc1-c1ccccc1)c1ccc(OC)c(OC)c1
  inhibition of growth at 0.1 µM: < 40%

Reference: ChEMBL document CHEMBL3120154, “2-[N-Alkyl(R-phenyl)-aminomethyl]-3-phenyl-7-trifluoromethylquinoxalines as anticancer agents inhibitors of folate enzymes” (Eur J Med Chem, 2014)
